Tested on: H9c2 cells
Test: H9c2 cell viability by MTT method after H2O2 injury
Assay type: cell-based
Conditions: H2O2 200 μmol/L 2 hours; SPRC Low Dose 10^−7 mol/L
Procedure: H9c2 cells were cultured in DMEM with 10% of fetal bovine serum, 37 degree C. and 5% CO2 incubator. The monolayer culture was split at a 1:4 ratio or harvested to perform experiments when confluence was 70-80%. Adjust the density of the cells to […] and inoculate the cells on a 96 well plate.
Control group, no SAC analogues treatment, no H2O2 injured process.
H2O2 injury (Model) group, no SAC analogues treatment, under H2O2 200 μmol/L for 2 hours.
PAG group, PAG 10^−4/mol/L
SPRC dosage groups: SPRC 1E-7, SPRC 1E-6, SPRC 1E-5, the cell groups were treated with SPRC dosages of 10^−7 mol/L, 10^−6 mol/L, 10^−5 mol/L respectively.
SPRC dosage+PAG groups: the cell group was treated with SPRC dosages of 10^−5 mol/L and PAG 10^−4 mol/L.
H9c2 cell viability was assessed by MTT method. […] PAG is able to block the effect of SPRC.

SMILES: C#CCSC[C@H](N)C(=O)O [SPRC, S-propargyl-cysteine]
- H9c2 Cell Survive: 62.4 ± 1.6%

Source: US8623919B2, “Method of synthesizing S-allyl-cysteine analogues and their therapeutic application in treating myocardial infarction” (Fudan University, priority 2007, dated 2014)
